Source: ChEMBL document CHEMBL3044950, “Insecticidal activity of Paraherquamides, including paraherquamide H and paraherquamide I, two new alkaloids isolated from Penicillium cluniae” (2006)

Tested on: Oncopeltus fasciatus
Assay: Insecticidal activity against Oncopeltus fasciatus fourth-instar nymphs assessed as induction of insect mortality after compound topical application measured 72 hr post compound application
Format: functional

| SMILES | LD50 |
| --- | --- |
| CN1C(=O)[C@]23C[C@H]4C(C)(C)[C@@]5(C[C@@]41CN2C(=O)C[C@@]3(C)O)C(=O)Nc1c5ccc2c1OC=CC(C)(C)O2 | 0.91 µg |
| C[C@H]1CCN2C[C@]34C[C@@]5(C(=O)Nc6c5ccc5c6OC=CC(C)(C)O5)C(C)(C)[C@@H]3C[C@]12C(=O)N4C [PARAHERQUAMIDE E] | 0.089 µg |
| CN1C(=O)[C@@]23CCCN2C[C@@]12C[C@@]1(C(=O)Nc4c1ccc1c4OC=CC(C)(C)O1)C(C)(C)[C@@H]2C3 [PARAHERQUAMIDE B] | 16.54 µg |
| CN1C(=O)[C@]23C[C@@H]4C(C)(C)[C@@]5(C[C@@]41CN2CC[C@@]3(C)O)C(=O)Nc1c5ccc2c1OC=CC(C)(C)O2 [Paraherquamide A] | 0.32 µg |
| CN1C(=O)[C@]23C[C@H]4C(C)(C)[C@@]5(C[C@@]41C[N+]2([O-])CC[C@@]3(C)O)C(=O)Nc1c5ccc2c1OC=CC(C)(C)O2 (stereo not given in full) [N-OXIDE PARAHERQUAMIDE] | 7.01 µg |
